Results as given in article PMC5607274, “An iterative compound screening contest method for identifying target protein inhibitors using the tyrosine-protein kinase Yes” (Scientific Reports, 2017).

target: T1, human recombinant Yes [a.a. 2–543 (end)] (Homo sapiens, UniProt P07947); assay: ADP-Glo kinase assay, inhibition rates of Yes phosphorylation activity (first and second screening); format: biochemical; settings: first screening; mean of n = 4 wells; 10 μmol L−1 compound
T1 construct: human recombinant Yes [a.a; 2–543 (end)]; purchased BPS Bioscience 40488
Method in brief: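 Hits from a first pass were rescreened after re-dissolution from fresh powder. The first pass reported the mean inhibition rate of quadruplicate wells per compound. Activity was that of recombinant human Yes [a.a. 2–543] kinase, read out with the ADP-Glo ADP-detection method.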

T1 sequence (P07947 2-543): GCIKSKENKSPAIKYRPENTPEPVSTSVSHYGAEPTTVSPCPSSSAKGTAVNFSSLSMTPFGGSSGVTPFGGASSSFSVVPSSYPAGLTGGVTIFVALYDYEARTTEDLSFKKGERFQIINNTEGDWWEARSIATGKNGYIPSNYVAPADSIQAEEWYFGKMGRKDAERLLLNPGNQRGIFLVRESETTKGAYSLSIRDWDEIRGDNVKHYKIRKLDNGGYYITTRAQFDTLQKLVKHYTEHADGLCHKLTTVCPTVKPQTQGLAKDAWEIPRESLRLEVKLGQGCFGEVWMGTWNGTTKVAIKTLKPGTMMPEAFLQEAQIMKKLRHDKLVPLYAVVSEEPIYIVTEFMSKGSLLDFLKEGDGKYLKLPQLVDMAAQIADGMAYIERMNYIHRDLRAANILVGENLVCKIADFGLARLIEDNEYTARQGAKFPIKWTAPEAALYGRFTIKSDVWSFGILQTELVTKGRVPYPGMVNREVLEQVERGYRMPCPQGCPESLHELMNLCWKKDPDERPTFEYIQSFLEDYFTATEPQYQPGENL

Compound	First screening IR (inhibition rate)
CCCCS(=O)(=O)C1CCS(=O)(=O)C1 (stereo not shown) [Compound Z56757812]	-9%
FC(F)(F)c1ccnc(Nc2ccc3c(c2)OC2(CCCCC2)O3)n1 [Compound Z285712986]	4%
Cc1nccn1-c1cncc(NCc2cc(-c3ccccc3)on2)n1 [Compound Z1798299891]	19%
O=C(Nc1ccc(C2(c3ccc(NC(=O)c4ccc(N5CCCCCC5)c([N+](=O)[O-])c4)cc3)CCCCC2)cc1)c1ccc(N2CCCCCC2)c([N+](=O)[O-])c1 [Compound Z56818449]	-7%
O=C(NCc1ccco1)c1cc(-c2cccnc2)nc2c1cnn2Cc1ccccc1Cl [Compound Z234860216]	19%
Cc1ccc(OCCSCc2nc(N)nc(Nc3ccc(F)cc3)n2)cc1 [Compound Z135099694]	9%
O=C(Nn1cnc2ccccc21)c1cnn(-c2ccccc2F)c1-n1cccc1 [Compound Z339292340]	11%
Cc1cc(C)n(CCCNC(=O)c2cc3cc(F)ccc3[nH]2)n1 [Compound Z301214762]	8%
CC(C)CN(C1CCS(=O)(=O)C1)S(=O)(=O)c1ccc(Cl)cc1 (stereo not shown) [Compound Z45480638]	1%
Cc1cc(NCC(O)COc2ccc(F)cc2)nc2ccccc12 (stereo not shown) [Compound Z815806580]	-15%
O=C(/C=c1/[nH]c(=O)/c(=C\c2ccc(Cl)cc2)s1)c1ccncc1 [Compound Z319403812]	8%
Cc1onc(-c2c(F)cccc2Cl)c1C(=O)OCc1nc(-c2cccs2)no1 [Compound Z51122297]	20%
CN(c1ccc(NC(=O)N2CCN(C(=O)c3cccnc3)CC2)cc1F)C1CCCCC1 [Compound Z595406192]	2%
C=CCN(CC=C)S(=O)(=O)c1cc(C)cc(S(C)(=O)=O)c1C [Compound Z1145185872]	4%
CC(CCc1ccc(O)cc1)NC(=O)Nc1ccc(NC(=O)c2ccco2)cc1 (stereo not shown) [Compound Z412774176]	-12%
Cc1ccc(C)c(C(=O)CCC(=O)NC(C)c2nc3ccccc3[nH]2)c1 (stereo not shown) [Compound Z195395734]	1%
CCCCNS(=O)(=O)C1=CCS(=O)(=O)C1 [Compound Z1342205464]	9%
Cl.Clc1ccc(-c2cc(-c3ccccc3)c3cc(Cl)ccc3n2)cc1 [Compound Z48950819]	36%
CCN(CC)c1ccc2c(c1)OC(=O)N(c1ccc(Cl)c(Cl)c1)P2(=Nc1ccc(C)cc1)N(CC)CC (stereo not shown) [Compound Z56783141]	-2%
Cc1nc2ccc(NC(=O)CNC(=O)c3ccccc3F)cc2s1 [Compound Z33270206]	4%
Cc1noc(C)c1COC(=O)c1ccc2[nH]c(C)c(C)c2c1 [Compound Z17094388]	4%

Compound	First screening IR (inhibition rate)
COCCOC(=O)c1cc(-c2ccc(C)cc2)nc2c1cnn2C(C)C [Compound Z226924464]	6%
Cc1[nH]n(-c2ccccc2)c(=O)c1/C(=N/NC(=O)c1cc(-c2ccccc2)n[nH]1)c1ccccc1 [Compound Z56919929]	1%
COc1ccc(C(=O)N[C@@H]2C(=O)Nc3c(c(C)nn3C)[C@H]2c2cccc(C(F)(F)F)c2)cc1OC [Compound Z98361471]	17%
CC(c1ccccc1)N1C(=O)C(=O)N(CC(=O)c2cccn2C)C1=O (stereo not shown) [Compound Z290228874]	-8%
O=C(CCc1cnn(-c2ccccc2)c1)Nc1nc2c(s1)CCCC2 [Compound Z131246512]	-5%
CCN(CC)c1ccc(/C=C2\CCC(/C=N/NC(=O)NC3CCCCC3)=C2N2CCOCC2)cc1 [Compound Z56769590]	-9%
CN(Cc1ccc(OC(F)F)cc1)C(=O)CN1C(=O)NC(C)(c2ccccc2Br)C1=O (stereo not shown) [Compound Z14158957]	23%
O=C(CN1C(=O)c2ccccc2C1=O)NCc1cn(Cc2ccccc2)nc1-c1ccccc1 [Compound Z230132198]	24%
Cc1nn(CCc2nn[nH]n2)c2nc(-c3ccccc3)cc(C(F)(F)F)c12 [Compound Z55874741]	1%
Cc1ccc(C)c(N2C(=O)c3ccc(C(=O)Nc4ccc(N5CCN(C)CC5)cc4C)cc3C2=O)c1 [Compound Z27972425]	8%
CCN(CCNC(=O)c1[nH]c2c(c1C)C(=O)CCC2)c1cccc(C)c1 [Compound Z188949814]	-5%
Cc1nn(C)c2ncc(NC(=O)c3cc(-c4ccco4)nc4onc(C)c34)cc12 [Compound Z239539964]	1%
CCOC(=O)c1c(-c2ccc(OC)c(OC)c2)csc1NC(=O)CN1CCN(c2cccc(OC)c2)CC1 [Compound Z46357060]	5%
O=C(O)/C(=C\c1cccc(C(F)(F)F)c1)Sc1nnc(-c2ccco2)o1 [Compound Z95207137]	-11%
CC(C)S(=O)(=O)CCS(=O)(=O)C(C)c1ccc(F)cc1 (stereo not shown) [Compound Z1347351122]	12%
Cc1nn(C2CCS(=O)(=O)C2)c2nc(C3CC3)cc(C(=O)Nc3ccc(C(N)=O)cc3)c12 (stereo not shown) [Compound Z60779201]	17%
CN(C1CCCCC1)S(=O)(=O)N1CCN(c2cn[nH]c(=O)c2Cl)CC1 [Compound Z357945110]	-10%
c1ccc(-c2nc(Sc3n[nH]c(-c4ccncc4)n3)nc3ccccc23)cc1 [Compound Z271700602]	-1%
COc1ccc(-c2cc(C(=O)O)c3cnn(C(C)C)c3n2)cc1OC [Compound Z56643618]	9%
Cc1cccc(CS(=O)(=O)CCS(C)(=O)=O)c1 [Compound Z822335078]	-2%
CCc1ccc(/C=C2/CN(C)Cc3c2nc2ccccc2c3C(=O)O)cc1 [Compound Z46114754]	0%

Compound	First screening IR (inhibition rate)
CCN(CC)S(=O)(=O)c1ccc(S(N)(=O)=O)cc1 [Compound Z45415602]	1%
Cc1noc(C)c1COc1ccc(C(=O)NCCCn2ccc3ccccc32)cc1 [Compound Z32811942]	3%
Cn1ncc2c(NCCOc3ccc4c(c3)OCO4)ncnc21 [Compound Z645593692]	-38%
Cc1cnc(COC(=O)c2cc(-c3ccccn3)ccc2Cl)cn1 [Compound Z1514764424]	-4%
CN1N=C(C(=O)N2CCN(S(=O)(=O)c3ccccc3C(F)(F)F)CC2)CCC1=O [Compound Z164780402]	7%
CCN(C(=O)CN(C)CC(=O)Nc1ccc(Cl)cc1)c1cccc2ccccc12 [Compound Z46378572]	33%
O=C(NCc1ccc(-n2cccn2)nc1)c1cc(-c2ccco2)[nH]n1 [Compound Z317736476]	-2%
N#C/C(=C(/O)COC(=O)c1cc(F)c(F)cc1Cl)c1nc2ccccc2[nH]1 [Compound Z18771813]	8%
CNc1ccc(/C=C2/CC(C)Cc3c2nc2ccccc2c3C(=O)O)cc1[N+](=O)[O-] (stereo not shown) [Compound Z46108034]	11%
Cn1ncc2c(N3CCNCC3)ncnc21 [Compound Z223639244]	-11%
Cc1ccc(-n2c(SCC(=O)c3ccc(NC(=O)C(C)(C)C)cc3)nnc2N2CCOCC2)cc1 [Compound Z98370329]	11%
O=S1(=O)C=CCC1 [Compound Z56764769]	9%
Nc1ncnc(Nc2ccc(Br)cc2)n1 [Compound Z56786772]	24%
Cc1ccccc1-c1cc(C(N)=O)c2cnn(C(C)C)c2n1 [Compound Z229615400]	14%
FC(F)(F)c1ccnc(Nc2cccc(/C=C/c3ccccn3)c2)n1 [Compound Z285694006]	12%
Cn1nc(Br)c2c(N3CCCC34CCCCC4)ncnc21 [Compound Z1527076521]	38%
COc1ccc(Cl)cc1CN(C)C(=O)c1cc(C(C)C)nc2c1cnn2C(C)C [Compound Z110143980]	-14%
O=C(Cc1ccc(F)cc1)N1CCN(S(=O)(=O)Cc2ccccc2)CC1 [Compound Z28905033]	-2%
Cc1cnc(C)c(NCc2cccc(Cn3ccnc3C)c2)n1 [Compound Z1687428428]	9%
CN(Cc1ccccc1Cl)S(=O)(=O)c1ccccc1S(C)(=O)=O [Compound Z285666434]	-2%
NC(=O)c1ccc(COc2ccc(I)cc2)c(F)c1 [Compound Z816021628]	-2%

same assay, conditions: second screening, dissolved from fresh powder; n = 4; 10 μmol L−1 compound

Compound	Second screening IR (inhibition rate)
Cl.Clc1ccc(-c2cc(-c3ccccc3)c3cc(Cl)ccc3n2)cc1 [Compound Z48950819]	-13%
